Experimental data published in patent US20250206757A1 (GASHERBRUM BIO, INC., priority 2022, published 2025).

What follows are compounds tested against GLP-1 Receptor (Homo sapiens, UniProt P43220) (assay: GLP-1R agonist cAMP stimulation assay (HEK293/GLP1R/CRE-LUC cells, HTRF cAMP dynamic 2 kit)). Details: HEK293/CRE-Luc cell line stably expressing the GLP-1 Receptor; 30 min incubation at 37° C.
Format: cell-based
Summary of the method: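 HEK293 cells stably expressing GLP-1R with CRE-Luc, 1000 cells/well in DPBS with 0.5 mM IBMX and 0.10% BSA, exposed to half-log compound dilutions for 30 min at 37 °C. cAMP measured by HTRF (665/615 nm) after 1 h at room temperature.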

Sequence of GLP-1 Receptor (P43220 24-463): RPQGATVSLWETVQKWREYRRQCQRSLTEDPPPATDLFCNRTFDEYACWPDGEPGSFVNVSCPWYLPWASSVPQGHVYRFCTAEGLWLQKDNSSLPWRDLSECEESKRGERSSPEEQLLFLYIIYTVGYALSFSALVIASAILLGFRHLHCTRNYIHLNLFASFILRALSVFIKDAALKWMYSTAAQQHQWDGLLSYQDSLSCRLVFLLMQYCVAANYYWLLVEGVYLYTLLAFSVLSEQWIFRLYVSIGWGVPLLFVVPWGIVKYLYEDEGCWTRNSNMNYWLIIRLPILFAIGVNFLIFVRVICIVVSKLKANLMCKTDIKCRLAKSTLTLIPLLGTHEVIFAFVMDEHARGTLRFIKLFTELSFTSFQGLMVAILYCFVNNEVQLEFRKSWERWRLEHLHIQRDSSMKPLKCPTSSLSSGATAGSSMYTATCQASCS

Row | EC50 | Compound
1 | < 1 nM | O=c1[nH]c(-c2ccc3c(nc(CN4CCc5cc(C(F)(F)F)c(NCc6ccc(Cl)cc6F)nc5C4)n3C[C@@H]3CCO3)c2F)no1 [Compound 106, 3-{2-[(2-{[(4-chloro-2-fluorophenyl)methyl]amino}-3-(trifluoromethyl)-5,6,7,8-tetrahydro-1,7-naphthyridin-7-yl)methyl]-4-fluoro-1-{[(2S)-oxetan-2-yl]methyl}-1H-1,3-benzodiazol-5-yl}-4,5-dihydro-1,2,4-oxadiazol-5-one]
2 | < 1 nM | Fc1cc(Cl)ccc1COc1nc2c(cc1C(F)(F)F)CCN(Cc1nc3c(F)c(-c4nnn[nH]4)ccc3n1C[C@@H]1CCO1)C2 [Compound 88, 2-[(4-chloro-2-fluorophenyl)methoxy]-7-[(4-fluoro-1-{[(2S)-oxetan-2-yl]methyl}-5-(1H-1,2,3,4-tetrazol-5-yl)-1H-1,3-benzodiazol-2-yl)methyl]-3-(trifluoromethyl)-5,6,7,8-tetrahydro-1,7-naphthyridine]
3 | < 1 nM | N#Cc1nnc(-c2cc3nc(CN4CCc5cc(C(F)(F)F)c(OCc6ccc(Cl)cc6F)nc5C4)n(C[C@@H]4CCO4)c3nn2)[nH]1 [Compound 42, 5-[6-({2-[(4-chloro-2-fluorophenyl)methoxy]-3-(trifluoromethyl)-5,6,7,8-tetrahydro-1,7-naphthyridin-7-yl}methyl)-7-{1[(2S)-oxetan-2-yl]methyl}-7H-imidazo[4,5-c]pyridazin-3-yl]-4H-1,2,4-triazole-3-carbonitrile]
4 | < 1 nM | Fc1cc(Cl)ccc1COc1nc2c(cc1C(F)(F)F)CCN(Cc1nc3cc(-c4nnc(C(F)(F)F)[nH]4)cnc3n1C[C@@H]1CCO1)C2 [Compound 16, 2-[(4-chloro-2-fluorophenyl)methoxy]-7-[(3-{[(2S)-oxetan-2-yl]methyl}-6-[5-(trifluoromethyl)-4H-1,2,4-triazol-3-yl]-3H-imidazo[4,5-b]pyridin-2-yl)methyl]-3-(trifluoromethyl)-5,6,7,8-tetrahydro-1,7-naphthyridine]
5 | < 1 nM | Fc1cc(Cl)ccc1COc1nc2c(cc1C(F)(F)F)CCN(Cc1nc3sc(-c4nnc(C(F)(F)F)[nH]4)cc3n1C[C@@H]1CCO1)C2 [Compound 59, 2-[(4-chloro-2-fluorophenyl)methoxy]-7-[(1-{[(2S)-oxetan-2-yl]methyl}-5-[5-(trifluoromethyl)-4H-1,2,4-triazol-3-yl]-1H-thieno[2,3-d]imidazol-2-yl)methyl]-3-(trifluoromethyl)-5,6,7,8-tetrahydro-1,7-naphthyridine]
6 | < 1 nM | O=c1[nH]c(-c2cnc3c(c2)nc(CN2CCc4cc(C(F)(F)F)c(OCc5c(F)cc(Cl)cc5F)nc4C2)n3C[C@@H]2CCO2)no1 [Compound 30, 3-[2-({2-[(4-chloro-2,6-difluorophenyl)methoxy]-3-(trifluoromethyl)-5,6,7,8-tetrahydro-1,7-naphthyridin-7-yl}methyl)-3-{[(2S)-oxetan-2-yl]methyl}-3H-imidazo[4,5-b]pyridin-6-yl]-4,5-dihydro-1,2,4-oxadiazol-5-one]
7 | 1 to 300 nM | Cc1nnc(-c2cc3c(nc(CN4CCc5cc(C(F)(F)F)c(OCc6ccc(Cl)cc6F)nc5C4)n3C[C@@H]3CCO3)s2)[nH]1 [Compound 60, 2-[(4-chloro-2-fluorophenyl)methoxy]-7-{[5-(5-methyl-4H-1,2,4-triazol-3-yl)-1-{[(2S)-oxetan-2-yl]methyl}-1H-thieno[2,3-d]imidazol-2-yl]methyl}-3-(trifluoromethyl)-5,6,7,8-tetrahydro-1,7-naphthyridine]
8 | < 1 nM | Cc1nnc(-c2cc3nc(CN4CCc5cc(C(F)(F)F)c(OCc6ccc(Cl)cc6F)nc5C4)n(C[C@@H]4CCO4)c3cn2)[nH]1 [Compound 62, 2-[(4-chloro-2-fluorophenyl)methoxy]-7-{[6-(5-methyl-4H-1,2,4-triazol-3-yl)-3-{[(2S)-oxetan-2-yl]methyl}-3H-imidazo[4,5-c]pyridin-2-yl]methyl}-3-(trifluoromethyl)-5,6,7,8-tetrahydro-1,7-naphthyridine]
9 | < 1 nM | O=c1[nH]c(-c2ccc3c(n2)nc(CN2CCc4cc(C(F)(F)F)c(OCc5ccc(Cl)cc5F)nc4C2)n3C[C@@H]2CCO2)no1 [Compound 49, 3-[2-({2-[(4-chloro-2-fluorophenyl)methoxy]-3-(trifluoromethyl)-5,6,7,8-tetrahydro-1,7-naphthyridin-7-yl}methyl)-1-{[(2S)-oxetan-2-yl]methyl}-11H-imidazo[4,5-b]pyridin-5-yl]-4,5-dihydro-1,2,4-oxadiazol-5-one]
10 | < 1 nM | O=c1[nH]c(-c2ccc3c(nc(CN4CCc5cc(C(F)(F)F)c(OCc6ccc(Cl)cc6)nc5C4)n3C[C@@H]3CCO3)c2F)no1 [Compound 46, 3-[2-({2-[(4-chlorophenyl)methoxy]-3-(trifluoromethyl)-5,6,7,8-tetrahydro-1,7-naphthyridin-7-yl}methyl)-4-fluoro-1-{[(2S)-oxetan-2-yl]methyl}-1H-1,3-benzodiazol-5-yl]-4,5-dihydro-1,2,4-oxadiazol-5-one]
11 | < 1 nM | Fc1cc(Cl)ccc1COc1nc2c(cc1C(F)(F)F)CCN(Cc1nc3cc(-c4nnn[nH]4)cnc3n1C[C@@H]1CCO1)C2 [Compound 15, 2-[(4-chloro-2-fluorophenyl)methoxy]-7-[(3-{[(2S)-oxetan-2-yl]methyl}-6-(1H-1,2,3,4-tetrazol-5-yl)-3H-imidazo[4,5-b]pyridin-2-yl)methyl]-3-(trifluoromethyl)-5,6,7,8-tetrahydro-1,7-naphthyridine]

The remaining lines, values behind:

Row | Compound | EC50
12 | O=C(NCC(F)(F)F)c1ccc2c(nc(CN3CCc4cc(C(F)(F)F)c(OCc5ccc(Cl)cc5F)nc4C3)n2C[C@@H]2CCO2)c1F [Compound 21, 2-({2-[(4-chloro-2-fluorophenyl)methoxy]-3-(trifluoromethyl)-5,6,7,8-tetrahydro-1,7-naphthyridin-7-yl}methyl)-4-fluoro-1-{[(2S)-oxetan-2-yl]methyl}-N-(2,2,2-trifluoroethyl)-1H-1,3-benzodiazole-5-carboxamide] | 1 to 300 nM
13 | N#Cc1cc2c(nc1OCc1c(F)cc(Cl)cc1F)CN(Cc1nc3cc(-c4nnc(C(F)F)[nH]4)ncc3n1C[C@@H]1CCO1)CC2 [Compound 69, 2-[(4-chloro-2,6-difluorophenyl)methoxy]-7-({6-[5-(difluoromethyl)-4H-1,2,4-triazol-3-yl]-3-{[(2S)-oxetan-2-yl]methyl}-3H-imidazo[4,5-c]pyridin-2-yl}methyl)-5,6,7,8-tetrahydro-1,7-naphthyridine-3-carbonitrile] | < 1 nM
14 | N#CC1(Cc2cc(-c3nnc(C(F)(F)F)[nH]3)cnc2CN2CCc3cc(Cl)c(OCc4ccc(Cl)cc4F)nc3C2)CC1 [Compound 11, 1-{[2-({3-chloro-2-[(4-chloro-2-fluorophenyl)methoxy]-5,6,7,8-tetrahydro-1,7-naphthyridin-7-yl}methyl)-5-[5-(trifluoromethyl)-4H-1,2,4-triazol-3-yl]pyridin-3-yl]methyl}cyclopropane-1-carbonitrile] | > 300 nM
15 | Cc1cc2c(nc1OCc1c(F)cc(Cl)cc1F)CN(Cc1nc3cc(-c4nnc(C(F)F)[nH]4)ncc3n1C[C@@H]1CCO1)CC2 [Compound 56, 2-[(4-chloro-2,6-difluorophenyl)methoxy]-7-({6-[5-(difluoromethyl)-4H-1,2,4-triazol-3-yl]-3-{[(2S)-oxetan-2-yl]methyl}-3H-imidazo[4,5-c]pyridin-2-yl}methyl)-3-methyl-5,6,7,8-tetrahydro-1,7-naphthyridine] | < 1 nM
16 | COCCn1c(CN2CCc3cc(C(F)(F)F)c(OCc4ccc(Cl)cc4F)nc3C2)nc2cc(-c3nnc(C(F)(F)F)[nH]3)ncc21 [Compound 80, 2-[(4-chloro-2-fluorophenyl)methoxy]-7-{[3-(2-methoxyethyl)-6-[5-(trifluoromethyl)-4H-1,2,4-triazol-3-yl]-3H-imidazo[4,5-c]pyridin-2-yl]methyl}-3-(trifluoromethyl)-5,6,7,8-tetrahydro-1,7-naphthyridine] | 1 to 300 nM
17 | Cc1cc2c(nc1OCc1c(F)cc(Cl)cc1F)CN(Cc1nc3cc(-c4nnc(C(F)F)[nH]4)cnc3n1C[C@@H]1CCO1)CC2 [Compound 53, 2-[(4-chloro-2,6-difluorophenyl)methoxy]-7-({6-[5-(difluoromethyl)-4H-1,2,4-triazol-3-yl]-3-{1[(2S)-oxetan-2-yl]methyl}-3H-imidazo[4,5-b]pyridin-2-yl}methyl)-3-methyl-5,6,7,8-tetrahydro-1,7-naphthyridine] | < 1 nM
18 | N#Cc1nnc(-c2cc3nc(CN4CCc5cc(C(F)(F)F)c(NCc6ccc(Cl)cc6F)nc5C4)n(C[C@@H]4CCO4)c3cn2)[nH]1 [Compound 108, 5-{2-[(2-{[(4-chloro-2-fluorophenyl)methyl]amino}-3-(trifluoromethyl)-5,6,7,8-tetrahydro-1,7-naphthyridin-7-yl)methyl]-3-{[(2S)-oxetan-2-yl]methyl}-3H-imidazo[4,5-c]pyridin-6-yl}-4H-1,2,4-triazole-3-carbonitrile] | < 1 nM
19 | N#CC1(Cc2cc(-c3nnc(C(F)(F)F)[nH]3)cnc2CN2CCc3cc(C(F)(F)F)c(OCc4ccc(Cl)cc4F)nc3C2)CC1 [Compound 10, 1-{[2-({2-[(4-chloro-2-fluorophenyl)methoxy]-3-(trifluoromethyl)-5,6,7,8-tetrahydro-1,7-naphthyridin-7-yl}methyl)-5-[5-(trifluoromethyl)-4H-1,2,4-triazol-3-yl]pyridin-3-yl]methyl}cyclopropane-1-carbonitrile] | 1 to 300 nM
20 | Cc1cc2c(nc1OCc1c(F)cc(Cl)cc1F)CN(Cc1nc3cc(-c4nnc(C#N)[nH]4)cnc3n1C[C@@H]1CCO1)CC2 [Compound 41, 5-[2-({2-[(4-chloro-2,6-difluorophenyl)methoxy]-3-methyl-5,6,7,8-tetrahydro-1,7-naphthyridin-7-yl}methyl)-3-{1[(2S)-oxetan-2-yl]methyl}-3H-imidazo[4,5-b]pyridin-6-yl]-4H-1,2,4-triazole-3-carbonitrile] | < 1 nM
